From patent US20230321062A1, “COMBINATION THERAPIES” (Mirati Therapeutics, Inc., priority 2020, published 2023)
Read-outs that look alike come from different tables or passages of the source. Square brackets hold non-standard residues; d marks the D form. Peptide text beside a SMILES is read from it. * marks the point of attachment. Dolaproine = CO[C@@H]([C@@H]1CCCN1)[C@@H](C)C(=O)O; Dil = CC[C@H](C)[C@H](NC)[C@@H](CC(=O)O)OC; X1 = C[C@@H](N*)[C@@H](O)c1ccccc1; NMeV = CN[C@H](C(=O)O)C(C)C

What was measured:
Urothelial Carcinoma [1] = conditions: cited from earlier work
Urothelial Carcinoma [2] = conditions: EV-201; cited from earlier work
Nectin-4 = molecular target: T1, Nectin-4 (Homo sapiens, UniProt Q96NY8); conditions: cited from earlier work
T1 construct: host or cells: cells that express Nectin-4
T1 sequence (Q96NY8 32-510): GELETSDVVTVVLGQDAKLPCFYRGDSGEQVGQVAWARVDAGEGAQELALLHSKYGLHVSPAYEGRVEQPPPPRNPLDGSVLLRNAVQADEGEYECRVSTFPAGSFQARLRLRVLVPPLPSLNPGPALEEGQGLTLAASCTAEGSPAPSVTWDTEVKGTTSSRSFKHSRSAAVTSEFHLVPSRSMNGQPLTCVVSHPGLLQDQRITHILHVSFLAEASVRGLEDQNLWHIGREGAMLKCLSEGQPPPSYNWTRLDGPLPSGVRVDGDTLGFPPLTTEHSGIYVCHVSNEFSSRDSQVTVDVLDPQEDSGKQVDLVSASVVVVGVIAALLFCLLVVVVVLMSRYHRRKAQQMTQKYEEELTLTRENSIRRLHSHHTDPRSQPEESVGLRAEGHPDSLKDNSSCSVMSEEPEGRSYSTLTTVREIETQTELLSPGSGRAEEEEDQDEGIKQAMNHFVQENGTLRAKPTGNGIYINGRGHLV

[3] = cited from earlier work; for steady-state concentrations reached after: 1.25 mg/kg Q3W regimen; for exposure (AUC) in mild, moderate or severe renal impairment compared to normal renal function: 1.25 mg/kg enfortumab; for elimination half-life / mean clearance (CL): after enfortumab dosing; for mean clearance (CL): patients
[4] = test system: human tumor xenograft models; assay: human tumor xenograft models; conditions: mice, broad spectrum of models
in vivo = assay: in vivo; set-up: species or system dogs; conditions: dog
[5] = neurological functional observation battery and respiratory evaluations; format: in vivo; conditions: rats, doses up to 25 mg/kg
target RTKs [6] = assay: cell-based assays of phosphorylation and kinase dependent function
BCRP = molecular target: T2, BCRP (Homo sapiens, UniProt Q9UNQ0); format: in vitro ADME
T2 construct: In a bidirectional permeability study with Caco-2 cell lines; endogenous in cells; host or cells: Caco-2

human plasma proteins = format: in vitro ADME
CYP2A6 = CYP2A6 (Homo sapiens, UniProt P11509); assay: direct CYP inhibition; format: in vitro ADME
CYP2B6 = CYP2B6 (Homo sapiens, UniProt P20813); assay: direct CYP inhibition; format: in vitro ADME
[7] = test system: MET, Axl, MERTK, VEGFR family, PDGFR family, KIT, FLT3, Trk family, RET, DDR2, and selected Eph family members
CYP2C19 = CYP2C19 (Homo sapiens, UniProt P33261); assay: direct CYP inhibition; format: in vitro ADME
hERG = hERG (Homo sapiens, UniProt Q12809); assay: hERG assay (in vitro); format: cell-based; conditions: read-out: IC50 on the potassium current
CYP2E1 = CYP2E1 (Homo sapiens, UniProt P05181); assay: direct CYP inhibition; format: in vitro ADME
CYP2D6 = CYP2D6 (Homo sapiens, UniProt P10635); assay: direct CYP inhibition; format: in vitro ADME
cytochrome P-450 = format: in vitro ADME; conditions: human
CYP1A2 = CYP1A2 (Homo sapiens, UniProt P05177); assay: direct CYP inhibition; format: in vitro ADME
[8] = pharmacokinetics after single dose of sitravatinib free base capsules; format: in vivo
P-gp = molecular target: T3, P-gp (Homo sapiens, UniProt P08183); format: in vitro ADME
T3 construct: In a bidirectional permeability study with Caco-2 cell lines; endogenous in cells; host or cells: Caco-2

CYP2C8 = CYP2C8 (Homo sapiens, UniProt P10632); assay: direct CYP inhibition; format: in vitro ADME
CYP enzymes = assay: time- or metabolism-dependent CYP inhibition; format: in vitro ADME
Caco-2 cell lines = assay: bidirectional permeability study with Caco-2 cell lines; format: in vitro ADME; conditions: Caco-2 bidirectional
[9] = test system: systemic/spleen T lymphocytes and MDSCs; assay: pilot studies in syngeneic mouse tumor models (immune cells); format: in vivo
Text: (§1) Receptor tyrosine kinases (RTKs) are key regulators of signaling pathways leading to cell growth, survival, and migration. These kinases are dysregulated in many cancers through overexpression, genetic alteration or co-expression with high affinity ligands. Multiple sitravatinib RTK targets are genetically altered in a variety of cancers and act as oncogenic drivers, promoting cancer development and progression.

CYP2C9 = CYP2C9 (Homo sapiens, UniProt P11712); assay: direct CYP inhibition; format: in vitro ADME
P-glycoprotein (P-gp) = molecular target: T4, P-glycoprotein (P-gp) (Homo sapiens, UniProt P08183); assay: P-gp substrate assessment in Caco-2 bidirectional permeability study; format: in vitro ADME
T4 construct: In a bidirectional permeability study with Caco-2 cell lines; endogenous in cells; host or cells: Caco-2

[10] = test system: RET, CBL, CHR4q12, DDR and Trk; conditions: cited from earlier work
PD-L1 on tumor cells = assay: PD-L1 expression on tumor cells in vitro and in vivo; format: cell-based
Text: as §1

target RTKs [11] = assay: oncogenic functions: MET-dependent cell viability and migration, endothelial tube formation and angiogenesis; conditions: endothelial tube formation, angiogenesis
[12] = molecular target: T5, Breast Cancer Resistance Protein (BCRP) (Homo sapiens, UniProt Q9UNQ0); assay: BCRP substrate assessment in Caco-2 bidirectional permeability study; format: in vitro ADME
T5 construct: In a bidirectional permeability study with Caco-2 cell lines; endogenous in cells; host or cells: Caco-2

Urothelial Carcinoma [13] = conditions: cited from earlier work; remark: listed apart in the source
Urothelial Carcinoma [14] = conditions: cited from earlier work; remark: listed apart in the source
[15] = cited from earlier work
[16] = KEYNOTE-052, overall population
[17] = KEYNOTE-052, patients with CPS ≥10

CYP2B6, sequence (P20813 whole entry): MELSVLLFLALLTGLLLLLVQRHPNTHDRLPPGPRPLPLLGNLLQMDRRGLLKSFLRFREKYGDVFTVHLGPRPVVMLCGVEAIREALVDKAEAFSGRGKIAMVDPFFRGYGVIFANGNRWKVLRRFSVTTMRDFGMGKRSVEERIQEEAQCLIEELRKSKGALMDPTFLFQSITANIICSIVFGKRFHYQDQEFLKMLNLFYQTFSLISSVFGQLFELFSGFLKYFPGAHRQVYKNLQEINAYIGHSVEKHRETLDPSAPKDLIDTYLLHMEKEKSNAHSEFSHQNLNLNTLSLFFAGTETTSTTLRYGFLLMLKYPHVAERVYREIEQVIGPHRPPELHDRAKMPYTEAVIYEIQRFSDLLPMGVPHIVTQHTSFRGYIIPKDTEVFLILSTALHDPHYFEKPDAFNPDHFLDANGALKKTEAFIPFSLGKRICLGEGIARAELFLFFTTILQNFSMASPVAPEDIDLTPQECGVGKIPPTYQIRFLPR
T5 sequence (Q9UNQ0 whole entry): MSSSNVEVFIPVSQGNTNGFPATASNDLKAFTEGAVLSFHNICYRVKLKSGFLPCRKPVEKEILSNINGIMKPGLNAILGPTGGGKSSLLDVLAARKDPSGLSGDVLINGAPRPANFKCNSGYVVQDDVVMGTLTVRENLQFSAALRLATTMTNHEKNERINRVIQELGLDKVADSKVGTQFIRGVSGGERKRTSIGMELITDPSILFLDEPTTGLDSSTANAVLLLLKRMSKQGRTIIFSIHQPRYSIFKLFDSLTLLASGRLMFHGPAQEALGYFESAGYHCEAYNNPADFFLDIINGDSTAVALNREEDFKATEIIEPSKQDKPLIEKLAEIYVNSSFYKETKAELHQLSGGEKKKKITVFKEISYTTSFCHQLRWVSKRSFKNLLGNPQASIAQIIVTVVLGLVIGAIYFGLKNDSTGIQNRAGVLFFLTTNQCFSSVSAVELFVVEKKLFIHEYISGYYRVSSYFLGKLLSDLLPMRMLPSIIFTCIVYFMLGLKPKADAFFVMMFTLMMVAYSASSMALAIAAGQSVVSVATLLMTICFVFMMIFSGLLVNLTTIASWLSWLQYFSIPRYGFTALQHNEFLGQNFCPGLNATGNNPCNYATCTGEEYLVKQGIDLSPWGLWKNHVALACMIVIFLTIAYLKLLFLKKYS
T2 sequence (Q9UNQ0 whole entry): as above
CYP2E1, sequence (P05181 whole entry): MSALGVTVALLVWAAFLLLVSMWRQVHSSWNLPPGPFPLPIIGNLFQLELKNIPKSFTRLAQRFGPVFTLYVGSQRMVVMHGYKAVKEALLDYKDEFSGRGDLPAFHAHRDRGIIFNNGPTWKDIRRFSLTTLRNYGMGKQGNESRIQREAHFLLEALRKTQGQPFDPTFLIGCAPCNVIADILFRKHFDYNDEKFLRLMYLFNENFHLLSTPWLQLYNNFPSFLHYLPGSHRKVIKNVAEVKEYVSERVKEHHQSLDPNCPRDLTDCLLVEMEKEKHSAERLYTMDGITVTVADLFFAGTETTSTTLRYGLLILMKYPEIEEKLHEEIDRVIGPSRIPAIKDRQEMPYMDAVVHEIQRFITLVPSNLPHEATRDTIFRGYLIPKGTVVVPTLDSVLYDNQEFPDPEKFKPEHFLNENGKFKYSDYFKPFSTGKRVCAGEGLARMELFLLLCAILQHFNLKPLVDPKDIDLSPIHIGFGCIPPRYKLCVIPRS
T4 sequence (P08183 whole entry): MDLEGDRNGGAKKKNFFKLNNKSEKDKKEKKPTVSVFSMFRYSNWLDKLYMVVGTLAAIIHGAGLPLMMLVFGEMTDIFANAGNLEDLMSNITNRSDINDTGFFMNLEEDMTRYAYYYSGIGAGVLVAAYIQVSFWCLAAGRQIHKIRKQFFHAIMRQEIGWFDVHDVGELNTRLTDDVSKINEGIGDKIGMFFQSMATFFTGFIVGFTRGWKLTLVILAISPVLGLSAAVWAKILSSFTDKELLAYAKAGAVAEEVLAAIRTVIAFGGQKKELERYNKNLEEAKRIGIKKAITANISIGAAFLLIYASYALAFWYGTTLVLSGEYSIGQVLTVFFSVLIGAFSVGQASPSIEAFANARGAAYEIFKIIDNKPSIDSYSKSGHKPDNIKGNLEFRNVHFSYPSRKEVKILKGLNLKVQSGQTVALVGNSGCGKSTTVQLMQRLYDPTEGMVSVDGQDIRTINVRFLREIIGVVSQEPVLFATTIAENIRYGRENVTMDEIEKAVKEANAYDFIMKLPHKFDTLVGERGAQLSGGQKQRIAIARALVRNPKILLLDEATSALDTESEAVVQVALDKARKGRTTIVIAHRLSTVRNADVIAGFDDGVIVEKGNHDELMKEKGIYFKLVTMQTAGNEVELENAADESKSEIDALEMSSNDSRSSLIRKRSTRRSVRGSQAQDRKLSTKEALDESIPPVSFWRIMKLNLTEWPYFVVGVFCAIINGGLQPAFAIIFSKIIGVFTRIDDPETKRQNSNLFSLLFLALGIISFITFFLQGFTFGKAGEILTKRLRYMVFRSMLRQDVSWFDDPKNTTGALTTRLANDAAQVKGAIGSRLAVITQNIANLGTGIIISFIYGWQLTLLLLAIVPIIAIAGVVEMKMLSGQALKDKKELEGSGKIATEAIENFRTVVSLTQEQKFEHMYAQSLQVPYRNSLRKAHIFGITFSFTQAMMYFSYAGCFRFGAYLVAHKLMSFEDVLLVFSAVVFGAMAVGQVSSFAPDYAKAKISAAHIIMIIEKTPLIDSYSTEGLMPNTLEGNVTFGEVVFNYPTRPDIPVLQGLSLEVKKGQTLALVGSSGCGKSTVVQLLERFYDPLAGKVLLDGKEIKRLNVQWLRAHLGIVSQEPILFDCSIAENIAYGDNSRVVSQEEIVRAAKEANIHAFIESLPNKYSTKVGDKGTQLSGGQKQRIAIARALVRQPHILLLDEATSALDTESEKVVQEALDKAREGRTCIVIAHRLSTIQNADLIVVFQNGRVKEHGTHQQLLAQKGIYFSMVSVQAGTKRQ
T3 sequence (P08183 whole entry): as above
CYP2A6, sequence (P11509 whole entry): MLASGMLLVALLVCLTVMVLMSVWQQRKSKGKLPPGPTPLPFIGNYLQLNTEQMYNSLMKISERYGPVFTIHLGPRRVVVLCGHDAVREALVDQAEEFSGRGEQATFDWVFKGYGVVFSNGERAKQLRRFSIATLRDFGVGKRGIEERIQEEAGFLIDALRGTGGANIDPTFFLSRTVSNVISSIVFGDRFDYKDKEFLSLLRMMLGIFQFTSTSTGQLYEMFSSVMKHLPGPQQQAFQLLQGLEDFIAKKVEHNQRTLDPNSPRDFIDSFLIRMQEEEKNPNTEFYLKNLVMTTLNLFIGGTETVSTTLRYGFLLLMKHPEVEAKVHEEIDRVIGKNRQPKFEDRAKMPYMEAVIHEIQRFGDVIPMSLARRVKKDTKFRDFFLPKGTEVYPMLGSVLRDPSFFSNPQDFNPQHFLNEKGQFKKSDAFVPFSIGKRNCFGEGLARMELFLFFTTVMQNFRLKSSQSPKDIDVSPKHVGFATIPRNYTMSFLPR

In the case of “enfortumab: Nectin-4 directed ADC: fully human anti-Nectin-4 IgG1 kappa antibody (AGS-22C3) conjugated to MMAE via protease-cleavable maleimidocaproyl valine-citrulline linker”, the “overall ORR as confirmed by central review” value (shortened to “overall ORR as confirmed”) (Urothelial Carcinoma [1]; EV-103 (pembrolizumab and enfortumab used in combination)) is given as 73%, the “median DOR” value (Urothelial Carcinoma [1]; EV-103, median follow-up 10.4 months) is given as “not reached” and the “12-month overall survival rate” value (Urothelial Carcinoma [1]; EV-103) is given as 82%. For the same compound, the complete response rate (Urothelial Carcinoma [1]; EV-103) was 16%, the median overall survival (Urothelial Carcinoma [1]; EV-103) was “not reached” and the complete response rate (Urothelial Carcinoma [2]) was 12%. The “median DOR” value (Urothelial Carcinoma [2]) was 7.6 months, the median overall survival (Urothelial Carcinoma [2]) was 11.7 months and the “overall ORR as confirmed” value (Urothelial Carcinoma [2]) was 44%. For the same compound, the “affinity of binding to cells that express Nectin-4” value (Nectin-4) was “high affinity”, the “steady-state concentrations reached after” value [3] was 1 treatment cycle and the “exposure (AUC) in mild, moderate or severe renal impairment compared to normal renal function” value [3] was “No significant differences”. For the same compound, the “dose proportionality of PK” value ([3]; 0.5 to 1.25 mg/kg, days 1, 8, 15 of 28-day cycle) was “linear dose-proportional PK”, the elimination half-life [3] was 81.6 h and the “estimated mean volume of distribution at steady state (Vss)” value ([3]; following administration of enfortumab) was 11 L. For the same compound, the “accumulation following repeat administration of enfortumab” value ([3]; in vivo) was “minimal accumulation”, the “time of peak concentrations” value ([3]; intravenous infusion) was “end of infusion” and the “mean clearance (CL)” value [3] was 0.10 L/h. The “differences in pharmacokinetics based on age, sex, or race/ethnicity” value ([3]; population PK) was “no clinically significant differences”.

In the case of `COCCNCc1ccc(-c2cc3nccc(Oc4ccc(NC(=O)C5(C(=O)Nc6ccc(F)cc6)CC5)cc4F)c3s2)nc1` [sitravatinib, N-(3-Fluoro-4-(2-(5-((2-methoxyethylamino)methyl)pyridin-2-yl)thieno[3,2-b]pyridin-7-yloxy)phenyl)-N-(4-fluorophenyl)cyclopropane-1,1-dicarboxamide], the “anti-tumor activity in human xenograft tumor models” value [4] is reported as “anti tumor efficacy”, the “anti-tumor activity in human xenograft tumor models” value ([4]; listed as Sitravatinib) is reported as “tumor regression” and the vascular pressures (in vivo) is reported as “Minor increases”. The concentration at 6 hr (in vivo; 4 mg/kg) was 72 ng/mL, the “neurological functional observation battery and respiratory evaluations (tidal volume, respiration rate, minute volume)” value [5] was “did not reveal any sitravatinib related effects” and the “phosphorylation and kinase dependent function” value (target RTKs [6]) was “inhibited phosphorylation and kinase dependent function”. For the same compound, the IC50 (BCRP) was 1510 nM, the “bound to human plasma proteins” value (human plasma proteins) was 98.6% and the “direct inhibition of CYP2A6” value (CYP2A6) was “little or no evidence”. For the same compound, the IC50 (CYP2B6) was over 20000 nM, the inhibition at 20 µM (CYP2B6; human, highest concentration evaluated (20 μM)) was about 50% and the “inhibition of kinase activity” value ([7]; biochemical assays) was “potent, concentration-dependent inhibition”. The “potency against intended clinical targets” value ([7]; generally) was “less than 0.1 μM”, the IC50 (CYP2C19) was 10000 nM and the IC50 (hERG) was 600 nM. The “direct inhibition of CYP2E1” value (CYP2E1) was “little or no evidence”, the IC50 (CYP2D6) was 1900 nM and the “CYP enzymes involved in metabolism” value (cytochrome P-450) was “multiple enzymes, including CYP 1A2, 2A6, 2B6, 2C8, 2C9, 2D6, 2E1, and 3A4 are involved”. For the same compound, the “direct inhibition of CYP1A2” value (CYP1A2) was “little or no evidence”, the “dose proportionality of Cmax and AUC” value ([8]; doses up to 200 mg) was “dose proportional” and the half-life ([8]; human, in vivo, oral administration, read-out: mean elimination half life) was 42 to 58 h. For the same compound, the IC50 (P-gp) was 838 nM, the IC50 (CYP2C8) was 2900 nM and the “time- or metabolism-dependent inhibition of any of the CYP enzymes evaluated” value (CYP enzymes) was “little or no evidence”. For the same compound, the permeability classification (Caco-2 cell lines) was “highly permeable”, the “systemic MDSCs” value [9] was “reduces the number” and the “systemic/spleen CD4+ and CD8+ T lymphocytes” value [9] was “increases the proliferation and fraction”. The IC50 (CYP2C9) was 11000 nM, the “substrate of P-gp” value (P-glycoprotein (P-gp)) was “not a substrate” and the “inhibition of a closely related spectrum of tyrosine kinases” value [10] was “potent inhibition”. For the same compound, the “expression of PD-L1 on tumor cells” value (PD-L1 on tumor cells) was “increase expression of PD-L1”, the “oncogenic functions associated with target RTKs” value (target RTKs [11]) was “inhibited oncogenic functions” and the “substrate of BCRP” value [12] was “not a substrate”.

For `CC[C@H](C)[C@@H]([C@@H](CC(=O)N1CCC[C@H]1[C@H](OC)[C@@H](C)C(=O)N[C@H](C)[C@@H](O)c1ccccc1)OC)N(C)C(=O)[C@@H](NC(=O)[C@@H](NC)C(C)C)C(C)C` [MMAE, monomethyl auristatin E] (H-[NMeV]V[Dil][Dolaproine]-X1), the “steady-state concentrations reached after” value [3] is given as 1 treatment cycle, the “exposure (AUC) in mild, moderate or severe renal impairment compared to normal renal function” value [3] is given as “No significant differences” and the elimination half-life [3] is given as 57.6 h. For the same compound, the “accumulation following repeat administration of enfortumab” value ([3]; in vivo) was “minimal accumulation”, the “time until which plasma concentrations increased after enfortumab dosing” value ([3]; in vivo) was about 2 days and the “mean clearance (CL)” value [3] was 2.7 L/h. For the same compound, the “AUC increase in patients with mild hepatic impairment compared to normal hepatic function” value ([3]; population PK, n=31) was 48%.

In the case of “pembrolizumab: humanized monoclonal IgG4 kappa antibody that blocks the interaction between PD-1 and its ligands, PD-L1 and PD-L2”, the “OS versus chemotherapy in subgroups” value (Urothelial Carcinoma [13]; KEYNOTE-045, all subgroups examined) is given as “OS benefit over chemotherapy”, the “ORR as confirmed by central review” value (Urothelial Carcinoma [13]; KEYNOTE-045, patients with CPS≥10) is given as 20% and the “overall ORR as confirmed” value (Urothelial Carcinoma [13]; KEYNOTE-045, pembrolizumab group) is given as 21%. For the same compound, the “median DOR” value (Urothelial Carcinoma [13]; KEYNOTE-045) was “not reached”, the median overall survival (Urothelial Carcinoma [13]; KEYNOTE-045) was 10.1 months and the “median DOR” value (Urothelial Carcinoma [14]; [16]) was 30.1 months. For the same compound, the “overall ORR as confirmed” value (Urothelial Carcinoma [14]; [16]) was 29%, the median overall survival (Urothelial Carcinoma [14]; KEYNOTE-052, overall) was 11.3 months and the “ORR as confirmed by central review” value (Urothelial Carcinoma [14]; [17]) was 47%. For the same compound, the “median DOR” value (Urothelial Carcinoma [14]; [17]) was “not reached”, the median overall survival (Urothelial Carcinoma [14]; [17]) was 18.5 months and the “steady-state exposure versus dose” value ([15]; 2 to 10 mg/kg Q3W) was “increased dose proportionally”. The systemic accumulation ([15]; Q3W regimen) was “approximately 2.1 fold”, the “geometric mean clearance (CL)” value ([15]; population PK, 2993 patients with various cancers) was 195 mL/day and the “geometric mean volume of distribution at steady state (Vss)” value ([15]; population PK) was 6.0 L.
